Tested on: PPP (coagulation cascade)
Assay: PT, aPTT and TT studies on PPP (coagulation analyzer)
Type: biochemical
Settings: rat PPP incubated 2 min with sample
Method: To confirm the role of third agent (Ca) (130) in the hemostatic composition, PT, a PTT and TT studies were performed using ST art 4, Diagnostica Stago, France. PPP was separated from anti-coagulated rat whole blood by centrifugation. PPP was incubated with the developed hemostatic composition for 2 min. For PT study, PPP from incubated sample was added to PT reagent in a cuvette placed in test area of coagulation analyzer and the time taken for PPP to clot was noted as PT. For a PTT study, PPP from incubated sample was further incubated with a PTT reagent after with cuvette was placed in test area and STA®-CaCl2 0.025M solution was added. Time taken for PPP to clot was noted as a PTT. For TT study, PPP from incubated sample was added to TT reagent in a cuvette placed in test area and the time taken for PPP to clot was noted as TT.

[Ca+2].[Cl-].[Cl-] [third agent, calcium chloride]
shorter: PT | TT | aPTT
